# Values quoted from earlier work, collected in US20040048871A1, “Use of high dose intravenous methotrexate, with leucovorin rescue, to treat early multiple sclerosis and other diseases of the central nervous system” (priority 2002, published 2004).
# Like-named read-outs stand apart in the source and are kept apart here.
# Tests used:
# [1] = 2.5 g/m^2 sporadically via IV infusion, with leucovorin rescue
# [2] = 8 g/m^2, four hour IV infusion, with leucovorin rescue
# [3] = for crossing of the blood brain barrier (BBB): in vivo
# [4] = in vivo
# [5] = low-dose methotrexate 7.5 mg/week, orally
structure (smiles),measurement,setting,value
CN(Cc1cnc2nc(N)nc(N)c2n1)c1ccc(C(=O)N[C@@H](CCC(=O)O)C(=O)O)cc1 [methotrexate],toxicity,[1],no significant toxicity
same,effect on the course of progressive MS,[5],impact the course of progressive MS
same,toxicity,[5],minimal toxicity
same,upper extremity strength in MS patients,oral methotrexate treatments,mild improvement
same,results in treating CNS lymphomas,[2],promising results
same,toxicity,[2],low toxicity
same,serum level sufficient to cross the BBB in cytotoxic amounts,[3]; administered orally,not sufficient to cross the BBB in cytotoxic amounts
Nc1nc2c(c(=O)[nH]1)N(C=O)C(CNc1ccc(C(=O)N[C@@H](CCC(=O)O)C(=O)O)cc1)CN2 (some centres unmarked) [leucovorin],crossing of the blood brain barrier (BBB),[3],does not penetrate the BBB
O=C1c2c(O)ccc(O)c2C(=O)c2c(NCCNCCO)ccc(NCCNCCO)c21 [mitoxantrone],crossing of the blood brain barrier (BBB),[3],do not cross the blood brain barrier
O=P1(N(CCCl)CCCl)NCCCO1 (centres unmarked) [cyclophosphamide],efficacy against the progression of MS,[4],some efficacy
same,crossing of the blood brain barrier (BBB),[3],do not cross the blood brain barrier
